Test results from US20240158393A1, “PYRIDONE COMPOUNDS AND METHODS OF USE” (Exelixis, Inc., priority 2021, published 2024).
Structures can show the parent of a compound that is named as a salt.

Assays:
Human Met = biological target: T1, Human Met (Homo sapiens, UniProt P08581); experiment: Human Met kinase assay (33P radiometric / HTRF KinEase); format: biochemical; details: protocols of Examples D-1 and/or D-2; read-out: c-Met IC50
T1 construct: Human MET (residues 956-1390)
Method in brief: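 Two formats gave IC50s by curve fitting. HTRF KinEase used MET residues 956-1390 with 1 μM biotin-peptide and 3.0 μM ATP (Km) for 40 min at room temperature, ten doses in 3% DMSO, 665/620 nm read. The 33P transfer assay used mutant Met R974-S1390 A1209G/V1290L (3.4 nM), 10 μM ATP, 250 μM peptide, pH 7.0, 40 min, nine doses from 1 μM.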

Human KDR = biological target: T2, Human KDR (Homo sapiens, UniProt P35968); experiment: Human KDR kinase assay (33P radiometric / HTRF KinEase); format: biochemical; details: protocols of Examples B-1 and/or B-2
T2 construct: Human KDR (residues K790-V1356, 55 nM); purchased Eurofins Pharma Discovery Services UK Limited (KinaseProfiler, B-1) and/or CarnaBio (B-2)
T2 sequence (P35968 790-1356): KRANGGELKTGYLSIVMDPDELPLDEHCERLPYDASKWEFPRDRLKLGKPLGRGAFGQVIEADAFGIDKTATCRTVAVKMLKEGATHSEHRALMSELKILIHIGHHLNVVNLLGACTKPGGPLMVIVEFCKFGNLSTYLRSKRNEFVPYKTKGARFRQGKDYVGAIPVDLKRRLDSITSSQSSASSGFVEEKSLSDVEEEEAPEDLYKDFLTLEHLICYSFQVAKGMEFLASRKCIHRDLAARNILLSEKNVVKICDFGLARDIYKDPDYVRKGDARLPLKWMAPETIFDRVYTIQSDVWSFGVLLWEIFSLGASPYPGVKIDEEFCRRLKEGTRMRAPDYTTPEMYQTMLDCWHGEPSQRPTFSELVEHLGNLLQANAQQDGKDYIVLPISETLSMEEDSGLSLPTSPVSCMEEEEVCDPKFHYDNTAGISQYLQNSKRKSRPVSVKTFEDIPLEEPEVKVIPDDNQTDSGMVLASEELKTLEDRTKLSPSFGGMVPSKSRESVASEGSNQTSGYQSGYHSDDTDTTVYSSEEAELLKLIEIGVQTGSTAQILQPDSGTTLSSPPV
Method in brief: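 Radiometric: KDR K790-V1356 (55 nM), MOPS pH 7.0, myelin basic protein, 10 μM [γ-33P]ATP, 40 min at room temperature, filter-bound 33P counted; nine half-log doses, top 1 μM. HTRF: KDR 790-1356, 1 μM biotinylated peptide, ATP at Km (4.0 μM), 40 min, 10 doses. IC50 from logistic fits.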

T1 sequence (P08581 974-1390 limits assumed): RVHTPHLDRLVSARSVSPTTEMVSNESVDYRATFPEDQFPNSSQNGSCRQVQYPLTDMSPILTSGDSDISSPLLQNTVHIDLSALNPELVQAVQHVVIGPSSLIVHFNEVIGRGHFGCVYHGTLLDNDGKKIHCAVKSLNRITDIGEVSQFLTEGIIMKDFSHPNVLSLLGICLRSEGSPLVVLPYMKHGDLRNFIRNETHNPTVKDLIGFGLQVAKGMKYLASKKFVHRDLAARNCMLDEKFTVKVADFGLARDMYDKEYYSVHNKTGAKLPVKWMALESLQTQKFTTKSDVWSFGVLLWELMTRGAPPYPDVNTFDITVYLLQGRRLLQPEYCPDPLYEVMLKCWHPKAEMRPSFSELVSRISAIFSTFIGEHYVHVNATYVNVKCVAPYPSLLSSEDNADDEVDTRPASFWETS

| SMILES | IC50 (Human Met) [nM] | IC50 (Human KDR) [nM] |
| --- | --- | --- |
| COCCOc1cc2nccc(Oc3ccc(NC(=O)c4c(C)nc(C)c(C5=CCOCC5)c4O)cc3F)c2nc1OC [Compound 43, 5-(3,6-Dihydro-2H-pyran-4-yl)-N-[3-fluoro-4-[[6-methoxy-7-(2-methoxyethoxy)-1,5-naphthyridin-4-yl]oxy]phenyl]-4-hydroxy-2,6-dimethylpyridine-3-carboxamide] | ≤ 100 | ≤ 100 |
| COc1cc2nccc(Oc3ccc(NC(=O)c4c5n(c(C)c(C6=CCOCC6)c4=O)CCOC5)cc3F)c2nc1OC [Compound 79, 7-(3,6-Dihydro-2H-pyran-4-yl)-N-[4-[(6,7-dimethoxy-1,5-naphthyridin-4-yl)oxy]-3-fluorophenyl]-6-methyl-8-oxo-3,4-dihydro-1H-pyrido[2,1-c][1,4]oxazine-9-carboxamide] | ≤ 100 | > 300 |
| COc1cc2nccc(Oc3ccc(NC(=O)c4c5n(cc(C6=CCCCC6)c4=O)CCOC5)cc3)c2nc1OC [Compound G1-5, 7-(Cyclohexen-1-yl)-N-[4-[(6,7-dimethoxy-1,5-naphthyridin-4-yl)oxy]phenyl]-8-oxo-3,4-dihydro-1H-pyrido[2,1-c][1,4]oxazine-9-carboxamide] | ≤ 100 | > 300 |
| C=C(C)c1c(C)nc(C)c(C(=O)Nc2cc(F)c(Oc3ccnc4cc(OC)c(OC)nc34)cc2F)c1O [Compound 6, N-[4-[(6,7-Dimethoxy-1,5-naphthyridin-4-yl)oxy]-2,5-difluorophenyl]-4-hydroxy-2,6-dimethyl-5-prop-1-en-2-ylpyridine-3-carboxamide] | ≤ 100 | ≤ 100 |
| COc1cnc2c(Oc3ccc(NC(=O)c4cnc(C)c(C5=CCCC5)c4O)cc3F)ccnc2c1 [Compound 1-9, 5-(Cyclopenten-1-yl)-N-[3-fluoro-4-[(7-methoxy-1,5-naphthyridin-4-yl)oxy]phenyl]-4-hydroxy-6-methylpyridine-3-carboxamide] | ≤ 100 | ≤ 100 |
| COc1cc2nccc(Oc3ccc(NC(=O)c4c(C)nc(C)c(C5=CCCC5)c4O)cc3F)c2nc1OC [Compound 1-2, 5-(Cyclopenten-1-yl)-N-[4-[(6,7-dimethoxy-1,5-naphthyridin-4-yl)oxy]-3-fluorophenyl]-4-hydroxy-2,6-dimethylpyridine-3-carboxamide hydrochloride] | ≤ 100 | ≤ 100 |
| COCCOc1cc2nccc(Oc3ccc(NC(=O)c4c(C)n(C)c(C)c(C5=CCCC5)c4=O)cc3F)c2nc1OC [Compound 42, 5-(Cyclopenten-1-yl)-N-[3-fluoro-4-[[6-methoxy-7-(2-methoxyethoxy)-1,5-naphthyridin-4-yl]oxy]phenyl]-1,2,6-trimethyl-4-oxopyridine-3-carboxamide] | ≤ 100 | ≤ 100 |
| COc1cc2nccc(Oc3ccc(NC(=O)c4c(C)nc(C)c(C(C)C)c4O)cc3F)c2nc1OC [Compound 31, N-[4-[(6,7-Dimethoxy-1,5-naphthyridin-4-yl)oxy]-3-fluorophenyl]-4-hydroxy-2,6-dimethyl-5-propan-2-ylpyridine-3-carboxamide] | ≤ 100 | ≤ 100 |
| COCCOc1cc2nccc(Oc3cc(F)c(NC(=O)c4c(C)n(C)c(C)c(C#N)c4=O)cc3F)c2nc1OC [Compound 83, 5-Cyano-N-[2,5-difluoro-4-[[6-methoxy-7-(2-methoxyethoxy)-1,5-naphthyridin-4-yl]oxy]phenyl]-1,2,6-trimethyl-4-oxopyridine-3-carboxamide] | > 300 | > 300 |
| COc1cc2nccc(Oc3ccc(NC(=O)c4c5n(c(C)c(C6=CCCC6)c4=O)CCOC5)cc3)c2nc1OC [Compound 99, 7-(Cyclopenten-1-yl)-N-[4-[(6,7-dimethoxy-1,5-naphthyridin-4-yl)oxy]phenyl]-6-methyl-8-oxo-3,4-dihydro-1H-pyrido[2,1-c][1,4]oxazine-9-carboxamide] | ≤ 100 | > 300 |
| COc1cc2nccc(Oc3ccc(NC(=O)c4c(C)c(Br)c(C)n(C5CCCC5)c4=O)cc3F)c2nc1OC [Compound 22, 5-Bromo-1-cyclopentyl-N-[4-[(6,7-dimethoxy-1,5-naphthyridin-4-yl)oxy]-3-fluorophenyl]-4,6-dimethyl-2-oxopyridine-3-carboxamide] | ≤ 100 | 100 to 300 |
| COc1ccc2nccc(Oc3ccc(NC(=O)c4cnc(C)c(C5=CCCCC5)c4O)cc3F)c2n1 [Compound 1-6, 5-(Cyclohexen-1-yl)-N-[3-fluoro-4-[(6-methoxy-1,5-naphthyridin-4-yl)oxy]phenyl]-4-hydroxy-6-methylpyridine-3-carboxamide] | ≤ 100 | 100 to 300 |
| COc1cc2nccc(Oc3ccc(NC(=O)c4c(C)n(C)c(C)c(C5CC5)c4=O)cc3)c2nc1OC [Compound 48, 5-Cyclopropyl-N-[4-[(6,7-dimethoxy-1,5-naphthyridin-4-yl)oxy]phenyl]-1,2,6-trimethyl-4-oxopyridine-3-carboxamide] | > 300 | > 300 |
| COc1cc2nccc(Oc3ccc(NC(=O)c4cnc(C)c(C5=CCCCC5)c4O)cc3)c2cc1OC [Compound 24, 5-(Cyclohexen-1-yl)-N-[4-(6,7-dimethoxyquinolin-4-yl)oxyphenyl]-4-hydroxy-6-methylpyridine-3-carboxamide] | ≤ 100 | ≤ 100 |
| COc1cc2nccc(Oc3ccc(NC(=O)c4c(C)nc(C)c(C(=O)NC(C)C)c4O)cc3F)c2nc1OC [Compound 94, 3-N-[4-[(6,7-Dimethoxy-1,5-naphthyridin-4-yl)oxy]-3-fluorophenyl]-4-hydroxy-2,6-dimethyl-5-N-propan-2-ylpyridine-3,5-dicarboxamide] | > 300 | ≤ 100 |
| COc1cc2nccc(Oc3ccc(NC(=O)c4cnc(C)c(/C=C/C5CC5)c4O)cc3F)c2nc1OC [Compound 26, 5-[(E)-2-Cyclopropylethenyl]-N-[4-[(6,7-dimethoxy-1,5-naphthyridin-4-yl)oxy]-3-fluorophenyl]-4-hydroxy-6-methylpyridine-3-carboxamide] | ≤ 100 | ≤ 100 |
| COc1cc2nccc(Oc3ccc(NC(=O)c4c(C)cc(C)n(C5=CCCC5)c4=O)cc3F)c2nc1OC [Compound 14, 1-(Cyclopenten-1-yl)-N-[4-[(6,7-dimethoxy-1,5-naphthyridin-4-yl)oxy]-3-fluorophenyl]-4,6-dimethyl-2-oxopyridine-3-carboxamide] | ≤ 100 | ≤ 100 |
| COc1cc2nccc(Oc3ccc(NC(=O)c4c(C)n(C)c(C)c(/C=C/C(C)(C)C)c4=O)cc3F)c2nc1OC [Compound 49, N-[4-[(6,7-Dimethoxy-1,5-naphthyridin-4-yl)oxy]-3-fluorophenyl]-5-[(E)-3,3-dimethylbut-1-enyl]-1,2,6-trimethyl-4-oxopyridine-3-carboxamide] | > 300 | ≤ 100 |
| COc1cc2nccc(Oc3ccc(NC(=O)c4c(C)nc(C)c(C#N)c4O)cc3F)c2nc1OC [Compound 87, 5-Cyano-N-[4-[(6,7-dimethoxy-1,5-naphthyridin-4-yl)oxy]-3-fluorophenyl]-4-hydroxy-2,6-dimethylpyridine-3-carboxamide] | > 300 | 100 to 300 |
| COc1cc2nccc(Oc3ccc(NC(=O)c4c(C)n(C)c(C)c(N5CCCC5)c4=O)cc3F)c2nc1OC [Compound 89, N-[4-[(6,7-Dimethoxy-1,5-naphthyridin-4-yl)oxy]-3-fluorophenyl]-1,2,6-trimethyl-4-oxo-5-pyrrolidin-1-ylpyridine-3-carboxamide] | ≤ 100 | ≤ 100 |
